Measurements taken from patent US9321838B2, “Therapy targeting cathepsin S” (Fusion Antibodies Limited, priority 2006, dated 2016).

Tests used:
[1] = tested on: HCT116+/+ human colorectal adenocarcinoma xenograft; assay: HCT116+/+ xenograft model, immunohistochemistry of tumour sections; format: in vivo, SCID mice; conditions: 15 mg/kg; sections stained with CatS 1E11 mAb; vs untreated
Description: 6-8 week old female SCID mice were implanted with 2×10^6 HCT116+/+ human colorectal adenocarcinoma cells into each flank. […] They were mixed with equal volumes of matrigel to give a final concentration of 5×10^6 cells/ml. Mice were randomly separated into treatment groups on day 5 after implantation and treated with various regimes of CatS Mab or Isotype control Mab (10 mg/kg) with/without 5Fu (15 mg/kg daily or 70 mg/kg twice weekly). All drugs were administered through a bolus injection. Animals were sacrificed at various time points and tumours were removed for analysis.
Paraffin embedding of formalin-fixed xenograft/organ tissue samples, section cutting and H&E (haematoxylin and eosin) staining of tissue sections were performed as previously described. Immunostaining was performed using the avidin-horseradish peroxidase method (Vectorlabs ABC Kit).
Briefly, sections were deparaffinised by passing from xylene to alcohol to running water. Endogenous peroxidase activity was blocked by incubation in 3% H2O2 in methanol for 10 min. Sections were then boiled in citrate buffer, pH6.0, for 22 min. Incubation in 5% normal horse serum blocking solution was carried out for 20 min at room temp. Sections were incubated with primary antibody at 4° C. overnight. Appropriate isotype controls were used at the same dilutions as primary antibodies. […]

other cathepsins = conditions: at higher concentrations; cited from earlier work
[2] = tested on: U251MG grade IV glioblastoma cell line; conditions: U251MG cells, in the presence of the Cat S inhibitor; cited from earlier work
RKO+/+ cells [3] = assay: RT semi quantitative PCR of CatS mRNA with/without CPT11; format: cell-based, human; conditions: 7.5 μM CPT11, 48 hour; treated vs untreated
RKO+/+ cells [4] = assay: flow cytometry of CatS cell surface expression with/without CPT11; format: cell-based, human; conditions: CPT11 48 hour treated; basal 38%
Description: (§1) Cells were collected from tissue culture plates using a scraper and washed ×3 in PBS (0.01% tween) (5 minute centrifugation at 1500 rpm). Approximately 5×10^5 cells were placed in appropriately labelled tubes. Cells were incubated with 50 μl anti-CatS or Isotype control (Sigma, UK) for 1 hour at room temperature. Following incubation each tube was washed ×3 in PBS (0.01% tween) (5 minute centrifugation at 1500 rpm). Samples were then incubated with a 1 in 15 dilution of FITC-conjugated goat anti-mouse secondary antibody (Sigma, UK) (samples kept in dark at room temperature). Following incubation each tube was washed ×3 in PBS (0.01% tween) (5 minute centrifugation at 1500 rpm). Samples were resuspended in 0.5 ml of PBS prior to immediate analysis using the Cyan flow cytometer (Dako, UK). Cell surface expression of CatS was examined using flow Cytometry.

HCT116+/+ cells [5] = assay: as above; format: cell-based, human; conditions: CPT11 48 hour treated; basal 39%
Description: as §1

H630 p53 mutant cells = assay: as above; format: cell-based, human; conditions: CPT11 48 hour treated; basal 37%
Description: as §1

HCT116+/+ cells [6] = assay: RT semi quantitative PCR of CatS mRNA with/without CPT11; format: cell-based, human; conditions: 7.5 μM CPT11, 48 hour; treated vs untreated
RKO+/+ cells [7] = assay: western blot of CatS in whole cell lysates with/without CPT11; format: cell-based, human; conditions: 48 hour CPT11 treatment (7.5 μM), whole cell lysate
Description: (§2) Cells were washed in PBS (5 minute centrifugation at 1500 rpm) prior to lysis with RIPA buffer containing a protease inhibitor cocktail (Calbiochem, UK) as previously described. Whole cell lysates were loaded onto 12% SDS-PAGE gels at equal concentrations. Gels were run overnight at 50V prior to semi-dry transfer onto nitrocellulose membrane at 20V for 45 minutes (BioRad, UK). The nitrocellulose membrane was blocked using PBS (3% Milk powder) for ˜1 hour, and washed ×3 with PBS (0.01% tween) for 5 minutes. The membrane was then probed with a 1 in 1000 dilution of CatS Mab (1E4 Mab or 1E11 Mab) in PBS (3% Milk powder) for 1 hour. The membrane was washed ×3 with PBS (0.01% tween) for 5 minutes prior to the addition of a 1 in 5000 dilution of secondary goat anti mouse-HRP conjugated antibody (BioRad, UK) in PBS (3% Milk powder) for 1 hour. This was then washed three times in PBS (0.01% tween) for 5 minutes each. The membrane was ‘developed’ by ECL (enhanced chemiluminescence) using the Super Signal kit (Pierce). The membrane was incubated in ECL solution for 5 minutes, prior to exposure to photographic film for various time periods. The photographic film was washed in developer solution (Sigma, UK) for 1 minute, rinsed with water, and washed in fixer solution (Sigma, UK) again for 1 minute before being rinsed and dried. […]

HCT116+/+ cells [8] = assay: as above; format: cell-based, human; conditions: 48 hour CPT11 treatment (7.5 μM), whole cell lysate
Description: as §2

O=c1[nH]cc(F)c(=O)[nH]1 [5-Fu, Fluorouracil, reference compound]
CatS expression in tumour sections from treated mice [1]: upregulation in CatS expression

CC(C)C[C@H](NC(=O)N1CCOCC1)C(=O)N[C@H](/C=C/S(=O)(=O)c1ccccc1)CCc1ccccc1 [LHVS, 4-Morpholineurea-Leu-HomoPhe-vinylsulphone]
inhibition of other cathepsins (other cathepsins): inhibit other cathepsins when used at higher concentrations | reduction in invasion [2]: 61%

CCc1c2c(nc3ccc(OC(=O)N4CCC(N5CCCCC5)CC4)cc13)-c1cc3c(c(=O)n1C2)COC(=O)[C@]3(O)CC [CPT11, Irinotecan]
CatS mRNA expression in response to chemotherapy (RKO+/+ cells [3]): increase in expression | positive CatS cell surface expression following chemotherapy induction (RKO+/+ cells [4]): 49% | positive CatS cell surface expression following chemotherapy induction (HCT116+/+ cells [5]): 59% | positive CatS cell surface expression following chemotherapy induction (H630 p53 mutant cells): 41% | CatS mRNA expression in response to chemotherapy (HCT116+/+ cells [6]): increase in expression | CatS whole protein expression, treated vs untreated (RKO+/+ cells [7]): no obvious difference in whole protein expression levels | CatS whole protein expression, treated vs untreated (HCT116+/+ cells [8]): no obvious difference in whole protein expression levels
